Assay results from US9427471B2, “Method and improved pharmaceutical composition for enhancing transdermal delivery of PDE-5 inhibitor” (Tritech Biopharmaceuticals Co., Ltd., priority 2011, dated 2016).

Assays:
[1] = In vivo skin permeation analysis (applied to rabbit ear, vardenafil in blood); details: gel formulations (about 0.5 ml, blood drawn after 1 hour) or skin patch (6 hours) with enhancer(s) applied to left ear of rabbit, blood from right ear artery; FIG. 2
Protocol: In vivo skin permeation tests were carried out using the gel formulations of example 2.1 and the skin patch of example 2.2. Briefly, small aliquots (about 0.5 ml) of gel formulations #1 to 4 or a small piece of the skin patch (3 cm×5 cm×0.15 cm) was applied to the left ear of a rabbit, after certain period of time, 1 ml of blood was drawn from the rabbit's right ear artery and analyzed for the amount of vardenafil. Specifically, the blood was drawn after 1 hour when gel formulation was used; and 6 hours when skin patch was applied. Results are illustrated in FIG. 2.

[2] = assay type: in vitro ADME; details: Sprague-Dawley, rat, 1 % (wt %)
Protocol: The permeation test was carried out using in vitro Franz diffusion cell with a diffusion area of 0.785 cm^2. A piece of rat (Sprague-Dawley) skin tissue was mounted between the two half-cells and fastened with a clamp. Aliquots of 1% (wt %) vardenafil with or without the addition of the enhancer of this disclosure, such as 0.3% (wt %) cocamidopropyl betaine, 1% (wt %) sodium lauroamphoacetate, 1% (wt %) isostearamidopropyl morpholine lactate, 1% (wt %) quaternium-60 or dipropyl glycol, were applied to the Donor compartment to start the experiment. The receiver compartment was filled with PBS and the temperature was held at 37° C. Samples were taken at certain time intervals and assayed by HPLC.

increase of the amount of vardenafil found in the blood stream as compared with control [1]: 4 to 5 folds
increase of the amount of vardenafil in the receiving side of Franz Diffusion chamber as compared with control [2]: 0.5-2 folds
SMILES: CCCc1nc(C)c2c(=O)[nH]c(-c3cc(S(=O)(=O)N4CCN(CC)CC4)ccc3OCC)nn12 [vardenafil]
